The text below walks through data of ChEMBL document CHEMBL3046457, “Chemical characterization of the aphid antifeedant extracts from Dittrichia viscosa and Ferula communis” (2012).

Common to all, as to assay type: functional
Assay [1] has as its system Myzus persicae. Put plainly: Insecticidal activity against Myzus persicae (green peach aphid) in compound treated leaf disk assessed as settled on leaf disk at 10 ug/cm'2 relative to control (reference value: 39 +/- 6 to 98 +/- 1%).
Assay [2] deals with Myzus persicae. Briefly: Insecticidal activity against Myzus persicae (green peach aphid) in compound treated leaf disk assessed as settled on leaf disk at 100 ug/cm'2 relative to control (reference value: 39 +/- 6 to 98 +/- 1%).
Assay [3] relates to Myzus persicae. Briefly: Insecticidal activity against Myzus persicae (green peach aphid) in compound treated leaf disk assessed as settling inhibition on leaf disk at 50 ug/cm'2 relative to control.
Assay [4] relates to Myzus persicae. Briefly: Insecticidal activity against Myzus persicae (green peach aphid) in compound treated leaf disk assessed as settling inhibition on leaf disk at 100 ug/cm'2 relative to control.
Assay [5] deals with Myzus persicae. Briefly: Insecticidal activity against Myzus persicae (green peach aphid) in compound treated leaf disk assessed as settled on leaf disk at 50 ug/cm'2 relative to control (reference value: 39 +/- 6 to 98 +/- 1%).
Assay [6] has as its system Myzus persicae. Briefly: Insecticidal activity against Myzus persicae (green peach aphid) in compound treated leaf disk assessed as settling inhibition on leaf disk at 10 ug/cm'2 relative to control.
The subject of assay [7] is Myzus persicae. Put plainly: Insecticidal activity against Myzus persicae (green peach aphid) in compound treated leaf disk assessed as settled on leaf disk.

Structures are written as SMILES.

For `CC(C)=CCC/C(C)=C/CC/C(C)=C/Cc1c(O)c2ccccc2oc1=O`, the “inhibition (INH)” value in assay [1] was 28%; in assay [2], 26%; in assay [3] it was 71%; in assay [4], 62%; in assay [5], 20%; in assay [6], 63%.

Take `C=C1C(=O)O[C@H]2CC(=C)[C@H]3CC[C@@](C)(O)[C@@H]3C[C@H]12` [INUVISCOLIDE]: the “inhibition (INH)” value in assay [1] is recorded as 43%; in assay [2], 31%; in assay [3] it was 50%; in assay [4], 56%; in assay [5], 39%; in assay [6], 38%.

On to `C=C1C(=O)O[C@@H]2C[C@H](C)C(CCC(C)=O)=CC[C@H]12` [TOMENTOSIN], for which the “inhibition (INH)” value was found to be 61% in assay [1]; 2% in assay [2]; 48% in assay [3]; 98% in assay [4]; 35% in assay [5]; 19% in assay [6]. The ED50 in assay [7] stood at 31.9 microg/cm2.
